In patent EP0834302A1, “Compositions comprising glutathione liposomes” (Boehringer Ingelheim Limited, priority 1996, dated 1998):

Key:
[1] = Depth of glutathione penetration into the skin: tape stripping with DPPH anti-free radical assay
Method: The depth of glutathione penetration into the skin was determined by comparing two different galenic forms: free glutathione in solution (FG) and glutathione encapsulated in a liposome (LG). Since glutathione is a highly reactive free radical scavenger, its presence even in small quantities can be detected by spectroscopic methods.
Gluthione preparations are applied to the skin, and tape strippings are taken after some fixed interval of time. The tape strippings are assayed for anti-free radical activity by DPPH (1,1 Diphenyl-2-picrylhydrazyl) at 8.76 x 10^-3 % (w/v) in methanol) colouration/ discolouration tests (Kim et al. Proc. 17th IFSCC Congress (Yokohama), Vol. 1: 3-14, 1994). […]
On the arms of each volunteer, the 3 test sites were determined in a random way: one site for application of water (negative control), one for application of free glutathione (FG) and one for application of liposome encapsulated glutathione (LG). […]
5 tape strippings were carried out on the control sites after 2µl/cm^2 application of distilled water and a light massage. […] The change in colour was measured on a spectrophotometer at 517nm.
Each test solution was then applied to the designated sites (2µl/cm^2) by slight massaging and left to dry for 30 minutes. […] Colour changes were recorded as described above.

[2] = test system: UVB induced skin erythema; conditions: applied topically in a simple oil-in-water emulsion or as a gel preparation; Int. J. Cos. Sci. 17:91-103, 1995; cited from earlier work

Structure (SMILES) | Tape strips containing residual scavenger activity, Mean value ([1]; in vivo) | depth of penetration ([1]; result in words, presence of DPPH reactive substances on successive strips) | inhibiting UVB induced skin erythema [2]
N[C@@H](CCC(=O)N[C@@H](CS)C(=O)NCC(=O)O)C(=O)O [FG, Reduced glutathione] | 1.3 | absence of significant penetration | 
N[C@@H](CCC(=O)N[C@@H](CS)C(=O)NCC(=O)O)C(=O)O [Glutathione] |  |  | ineffective
